# Experimental data taken from patent US10618869B2, “Oligo-benzamide compounds and their use” (The Board of Regents of the University of Texas System, priority 2010, dated 2020).
# Entries after “also recorded” stand apart in the source; their conditions may differ.
# How the values were obtained:
# [1] = Storage stability of D2 in DMSO; type: physicochemical; details: room temperature and −70° C., storage 60 days
# AR-PELP1 interaction = experiment: DHT-induced AR-PELP1 co-immunoprecipitation in PCa cells; type: cell-based
# Source text: FIG. 6. Effect of D1 and D2 on DHT induced AR-PELP1 co-immunoprecipitation in LNCaP cells.
# FIGS. 7A-C. Effect of D1 and D2 on DHT induced AR-PELP1 co-immunoprecipitation in LNCaP cells. (FIG. 7A) Model depicts the proposed role for D2 in disrupting the interaction between AR and NR Box proteins such as Hsp27 and PELP1. (FIG. 7B) Effect of increasing concentration of D2 on complex formation between AR and NR Box proteins such as Hsp27 and PELP1, as shown for immunoprecipitation with AR (top panel) and with PELP1 (bottom panel). Input lysates are shown at the bottom. (FIG. 7C) Rescue of D2-induced suppression of AR-PELP1 complex formation: Following transient transfection with increasing concentrations of AR (left panel) or increasing concentration of PELP1 (right panel), LnCAP cells were treated with 10 nM DHT for 24 hours following preincubation with D2 or control D1. Extracts were immunoprecipitated with AR and immunoblotted with PELP1, AR or importin.
# FIG. 6 provides confirmation that D2 was directed against the LXXLL (SEQ ID NO: 1) motif and was capable of blocking AR and PELP1 interaction in vivo was obtained from coimmunoprecipitation experiments in LnCaP PCa cells.
# D2 was also able to block the DHT- and E2-induced interaction of AR with PELP1 in LAPC4, C4-2, VCAP and CWR22v1 cells. […] The ability of D2 to block AR-PELP1 interaction could be overcome by transient over-expression of PELP1 in a dose-dependent manner.
# [2] = target: T1, interaction between AR and hsp90 (Homo sapiens, UniProt P10275); experiment: AR-hsp90 interaction (co-immunoprecipitation); type: cell-based; details: hsp90 lacks a LXXLL motif
# T1 construct: endogenous in cells; host or cells: prostate cancer cells
# T1 sequence (P10275 1-920): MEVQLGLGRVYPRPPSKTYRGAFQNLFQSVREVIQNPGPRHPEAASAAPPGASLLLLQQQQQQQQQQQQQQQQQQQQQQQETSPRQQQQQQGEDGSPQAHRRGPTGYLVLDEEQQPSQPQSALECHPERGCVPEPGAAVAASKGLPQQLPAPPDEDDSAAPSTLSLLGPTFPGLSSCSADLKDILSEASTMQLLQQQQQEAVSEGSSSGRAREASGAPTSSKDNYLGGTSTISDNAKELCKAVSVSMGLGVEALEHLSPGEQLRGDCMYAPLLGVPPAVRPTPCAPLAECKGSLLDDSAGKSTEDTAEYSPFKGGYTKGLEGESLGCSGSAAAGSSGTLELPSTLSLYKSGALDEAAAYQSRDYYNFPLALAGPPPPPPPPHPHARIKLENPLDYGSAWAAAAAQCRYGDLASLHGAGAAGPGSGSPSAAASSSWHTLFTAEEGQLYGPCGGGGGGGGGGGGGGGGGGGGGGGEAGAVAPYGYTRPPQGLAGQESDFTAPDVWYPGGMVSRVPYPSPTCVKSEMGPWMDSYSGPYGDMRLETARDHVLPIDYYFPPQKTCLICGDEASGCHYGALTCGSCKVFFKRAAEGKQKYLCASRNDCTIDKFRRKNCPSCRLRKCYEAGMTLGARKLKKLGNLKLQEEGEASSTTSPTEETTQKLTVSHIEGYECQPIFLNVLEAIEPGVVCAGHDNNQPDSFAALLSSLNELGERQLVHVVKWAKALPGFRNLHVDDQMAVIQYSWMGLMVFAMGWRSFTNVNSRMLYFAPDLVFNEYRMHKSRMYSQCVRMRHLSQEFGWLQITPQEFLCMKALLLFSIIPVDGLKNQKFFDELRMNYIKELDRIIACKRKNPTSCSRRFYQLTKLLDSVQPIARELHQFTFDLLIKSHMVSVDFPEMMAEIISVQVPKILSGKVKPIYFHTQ
# ARE-luciferase reporter = experiment: DHT-induced transcription from minimal ARE-luciferase reporter; type: cell-based; details: LNCaP, CWR22v1 and LAPC4 cell lines
# Source text: FIG. 9. […] This effect of D2 could be rescued by overexpression of AR (bottom left panel) or PELP1 (bottom right panel).
# (§1) At the protein level, D2, but not D1, was able to block DHT-induced expression of PSA protein. Again, the suppresion of DHT-induced transcription from an ARE could be overcome by overexpression of either AR or PELP1 ([…]). Overexpression of PELP1 was able to rescue the D2-mediated suppression of DHT-induced transcription nearly back to baseline.
# PSA and TMPRSS promoter = experiment: QPCR of PSA and TMPRSS, DHT-induced; type: cell-based
# Source text: FIG. 8 confirms these findings by QPCR experiment evaluating the effect of D1 and D2 on DHT-induced TMPRSS and PSA gene expression at the RNA level in LNCaP cells (bottom left panel) and by western blot analyses as evaluated by the effect of D1 and D2 on the expression of PSA, androgen receptor and actin in LAPC4 cells at the protein level. […] Confirmation of these findings were obtained by QPCR and western blot analyses.
# as §1
# PCa cells = experiment: EGF or LPA-induced proliferation of PCa cells (MTT assay); type: cell-based; details: peptidomimetic added 2 hours prior
# Procedure: FIG. 11. […] D2 does block DHT-induced proliferation of prostate cancer cells.
# In this experiment, cells were plated (2-10×10^3/well) in 96 well plates and subjected to androgen deprivation for 48 hours with phenol-red free RPMI and 1% charcoal stripped fetal bovine serum (CSF). Cells were then treated with either ethanol, EGF or DHT as a positive control for 48 hours. Peptidomimetics were added 2 hours prior to treatment. Cell proliferation was measured using the MTT colorimetric assay.
# erk = experiment: DHT-mediated non-genomic activation of erk; type: cell-based; details: FIG. 12
# AR nuclear translocation = experiment: DHT-induced nuclear translocation of AR in LNCaP cells; type: cell-based
# Procedure: FIGS. 13A-B. Effect on DHT-induced nuclear translocation of exogenous AR-GFP in LNCaP cells transiently transfected with AR. (a) Blue stain is DAPI (for nucleus) and green is AR (GFP). Baseline untreated LNCaP cells are shown in top left panel. Cells were pretreated with DMSO (left panel), 100 nM D1 (middle panel) and 100 nM D2 (right panel) and then treated with 1 nM DHT. AR nuclear translocation was visualized at 4 hours following DHT treatment. (b) Nuclear and cytoplasmic extracts were collected from similar cells and subject to western analyses.
# FIG. 13 shos that pretreatment with D2 blocked DHT-induced translocation of AR-GFP to the nucleus in LnCaP cells compared to the control D1 or DMSO.
smiles,measurement,setting,value
COC(=O)c1ccc(NC(=O)c2ccc([N+](=O)[O-])c(OCC(C)C)c2)c(OCC(C)C)c1 [D2],stability in DMSO,[1],stable in DMSO
same,stability of AR or PELP1,AR-PELP1 interaction,did not adversely affect
same,DHT- and E2-induced interaction of AR with PELP1,"AR-PELP1 interaction; LAPC4, C4-2, VCAP and CWR22v1 cells",able to block
same,DHT-induced physical interaction of AR and PELP1,"AR-PELP1 interaction; LnCaP cells, preincubation with 100 nM",blocked
same,"AR-PELP1 interaction, dose dependence","AR-PELP1 interaction; increasing concentration, FIG. 7",blocked AR-PELP1 interaction in a dose-dependent manner
same,interaction between AR and hsp90,[2],not able to affect
same,DHT-induced transcription from minimal ARE-luciferase reporter,ARE-luciferase reporter,able to block; also recorded: block DHT-Induced gene expression
same,DHT-induced transcription from ARE-driven promoters at RNA level (QPCR),PSA and TMPRSS promoter,block DHT-induced transcription from ARE-driven promoters was confirmed
same,EGF or LPA-induced proliferation of PCa cells,PCa cells,no effect; also recorded: does not affect
same,DHT-mediated non-genomic activation of erk,erk,no effect; also recorded: does not block
same,DHT-induced translocation of AR-GFP to the nucleus (imaging),"AR nuclear translocation; 100 nM pretreatment, 1 nM DHT, 4 hours",blocked
same,AR nuclear translocation (nuclear and cytoplasmic extracts),AR nuclear translocation; upon addition of DHT,prevents AR nuclear translocation
